Experimental data taken from ChEMBL document CHEMBL5550200, “Back-Pocket Optimization of 2-Aminopyrimidine-Based Macrocycles Leads to Potent EPHA2/GAK Kinase Inhibitors” (J Med Chem, 2024).

How the values were obtained:
Ephrin type-A receptor 4 = Ephrin type-A receptor 4 (Homo sapiens, UniProt P54764); test: Induction of stabilization of recombinant EPHA4 (unknown origin) assessed as change in melting temperature by differential scanning fluorimetry assay
[1] = biological target: Ephrin type-A receptor 7 (Homo sapiens) (UniProt Q15375); test: Induction of stabilization of recombinant EPHA7 (unknown origin) assessed as change in melting temperature by differential scanning fluorimetry assay
[2] = biological target: T1, Ephrin type-B receptor 1 (Homo sapiens) (UniProt P54762); test: Induction of stabilization of recombinant EPHB1 (unknown origin) assessed as change in melting temperature by differential scanning fluorimetry assay
T1 sequence (whole entry): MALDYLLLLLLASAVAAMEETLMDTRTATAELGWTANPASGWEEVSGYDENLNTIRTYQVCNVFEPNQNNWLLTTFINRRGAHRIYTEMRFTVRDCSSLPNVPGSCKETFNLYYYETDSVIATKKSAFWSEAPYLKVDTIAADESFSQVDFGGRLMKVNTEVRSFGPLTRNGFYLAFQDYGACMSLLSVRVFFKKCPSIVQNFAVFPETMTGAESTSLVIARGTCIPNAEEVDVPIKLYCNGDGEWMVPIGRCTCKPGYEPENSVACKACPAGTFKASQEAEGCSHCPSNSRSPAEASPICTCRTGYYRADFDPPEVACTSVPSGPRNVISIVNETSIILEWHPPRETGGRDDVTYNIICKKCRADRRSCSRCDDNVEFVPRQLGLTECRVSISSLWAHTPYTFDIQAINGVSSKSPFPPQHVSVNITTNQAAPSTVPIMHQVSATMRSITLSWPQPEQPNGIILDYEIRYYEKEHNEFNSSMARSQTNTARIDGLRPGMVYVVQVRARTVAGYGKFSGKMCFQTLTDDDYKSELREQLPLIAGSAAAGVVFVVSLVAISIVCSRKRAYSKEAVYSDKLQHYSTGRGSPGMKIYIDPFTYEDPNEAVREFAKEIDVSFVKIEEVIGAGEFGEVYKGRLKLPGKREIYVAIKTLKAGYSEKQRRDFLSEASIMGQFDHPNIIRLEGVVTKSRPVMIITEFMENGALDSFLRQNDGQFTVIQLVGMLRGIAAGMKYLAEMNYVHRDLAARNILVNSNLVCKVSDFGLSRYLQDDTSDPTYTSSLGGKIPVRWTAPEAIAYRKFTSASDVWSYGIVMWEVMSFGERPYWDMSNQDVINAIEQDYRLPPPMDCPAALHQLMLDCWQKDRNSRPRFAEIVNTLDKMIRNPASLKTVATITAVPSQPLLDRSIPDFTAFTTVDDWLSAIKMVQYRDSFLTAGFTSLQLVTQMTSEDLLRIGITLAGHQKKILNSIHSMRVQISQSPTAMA

[3] = biological target: T2, Ephrin type-B receptor 3 (Homo sapiens) (UniProt P54753); test: Induction of stabilization of recombinant EPHB3 (unknown origin) assessed as change in melting temperature by differential scanning fluorimetry assay
T2 sequence (whole entry): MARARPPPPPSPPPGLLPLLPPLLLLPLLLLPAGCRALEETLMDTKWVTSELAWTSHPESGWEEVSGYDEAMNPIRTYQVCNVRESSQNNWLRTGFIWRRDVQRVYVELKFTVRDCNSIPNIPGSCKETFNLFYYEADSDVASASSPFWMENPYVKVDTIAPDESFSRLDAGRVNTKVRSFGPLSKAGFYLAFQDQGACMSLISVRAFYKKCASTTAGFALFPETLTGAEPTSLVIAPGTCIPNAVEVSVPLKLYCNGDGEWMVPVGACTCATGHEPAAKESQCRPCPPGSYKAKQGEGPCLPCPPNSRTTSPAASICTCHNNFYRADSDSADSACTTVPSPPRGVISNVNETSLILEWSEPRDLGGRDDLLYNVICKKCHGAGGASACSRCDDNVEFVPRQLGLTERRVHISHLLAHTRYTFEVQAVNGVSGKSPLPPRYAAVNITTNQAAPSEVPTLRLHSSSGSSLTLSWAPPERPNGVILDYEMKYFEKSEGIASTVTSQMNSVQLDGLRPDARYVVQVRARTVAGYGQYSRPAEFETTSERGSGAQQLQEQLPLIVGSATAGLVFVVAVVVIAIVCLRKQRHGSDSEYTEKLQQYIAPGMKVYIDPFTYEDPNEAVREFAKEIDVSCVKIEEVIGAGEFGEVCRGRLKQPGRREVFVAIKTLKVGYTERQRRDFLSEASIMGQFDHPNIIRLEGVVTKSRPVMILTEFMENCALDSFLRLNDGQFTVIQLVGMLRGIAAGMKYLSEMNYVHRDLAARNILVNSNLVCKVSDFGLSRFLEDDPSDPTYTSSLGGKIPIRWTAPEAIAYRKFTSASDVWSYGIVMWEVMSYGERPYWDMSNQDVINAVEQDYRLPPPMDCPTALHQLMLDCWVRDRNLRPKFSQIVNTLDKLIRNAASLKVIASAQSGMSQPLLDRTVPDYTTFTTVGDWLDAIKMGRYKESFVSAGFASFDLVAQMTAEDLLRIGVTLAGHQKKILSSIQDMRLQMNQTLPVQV

[4] = biological target: Vascular endothelial growth factor receptor 1 (Homo sapiens, UniProt P17948); test: Induction of stabilization of recombinant FLT1 (unknown origin) assessed as change in melting temperature by differential scanning fluorimetry assay
Ephrin type-A receptor 2 = Ephrin type-A receptor 2 (Homo sapiens, UniProt P29317)
Description: Induction of stabilization of recombinant EPHA2 (D596 to G900 residues) (unknown origin) expressed in Escherichia coli rosetta BL21(D3)-R3-pRARE2 competent cells assessed as change in melting temperature by differential scanning fluorimetry assay

[5] = biological target: Ephrin type-A receptor 5 (Homo sapiens) (UniProt P54756)
Description: Induction of stabilization of recombinant EPHA5 (unknown origin) assessed as change in melting temperature by differential scanning fluorimetry assay

[6] = biological target: Fibroblast growth factor receptor 1 (Homo sapiens, UniProt P11362)
Description: Induction of stabilization of recombinant FGFR1 (unknown origin) assessed as change in melting temperature by differential scanning fluorimetry assay

[7] = biological target: Fibroblast growth factor receptor 2 (Homo sapiens) (UniProt P21802)
Description: Induction of stabilization of recombinant FGFR2 (unknown origin) assessed as change in melting temperature by differential scanning fluorimetry assay

[8] = biological target: T3, Cyclin-G-associated kinase (Homo sapiens) (UniProt O14976)
T3 sequence (whole entry): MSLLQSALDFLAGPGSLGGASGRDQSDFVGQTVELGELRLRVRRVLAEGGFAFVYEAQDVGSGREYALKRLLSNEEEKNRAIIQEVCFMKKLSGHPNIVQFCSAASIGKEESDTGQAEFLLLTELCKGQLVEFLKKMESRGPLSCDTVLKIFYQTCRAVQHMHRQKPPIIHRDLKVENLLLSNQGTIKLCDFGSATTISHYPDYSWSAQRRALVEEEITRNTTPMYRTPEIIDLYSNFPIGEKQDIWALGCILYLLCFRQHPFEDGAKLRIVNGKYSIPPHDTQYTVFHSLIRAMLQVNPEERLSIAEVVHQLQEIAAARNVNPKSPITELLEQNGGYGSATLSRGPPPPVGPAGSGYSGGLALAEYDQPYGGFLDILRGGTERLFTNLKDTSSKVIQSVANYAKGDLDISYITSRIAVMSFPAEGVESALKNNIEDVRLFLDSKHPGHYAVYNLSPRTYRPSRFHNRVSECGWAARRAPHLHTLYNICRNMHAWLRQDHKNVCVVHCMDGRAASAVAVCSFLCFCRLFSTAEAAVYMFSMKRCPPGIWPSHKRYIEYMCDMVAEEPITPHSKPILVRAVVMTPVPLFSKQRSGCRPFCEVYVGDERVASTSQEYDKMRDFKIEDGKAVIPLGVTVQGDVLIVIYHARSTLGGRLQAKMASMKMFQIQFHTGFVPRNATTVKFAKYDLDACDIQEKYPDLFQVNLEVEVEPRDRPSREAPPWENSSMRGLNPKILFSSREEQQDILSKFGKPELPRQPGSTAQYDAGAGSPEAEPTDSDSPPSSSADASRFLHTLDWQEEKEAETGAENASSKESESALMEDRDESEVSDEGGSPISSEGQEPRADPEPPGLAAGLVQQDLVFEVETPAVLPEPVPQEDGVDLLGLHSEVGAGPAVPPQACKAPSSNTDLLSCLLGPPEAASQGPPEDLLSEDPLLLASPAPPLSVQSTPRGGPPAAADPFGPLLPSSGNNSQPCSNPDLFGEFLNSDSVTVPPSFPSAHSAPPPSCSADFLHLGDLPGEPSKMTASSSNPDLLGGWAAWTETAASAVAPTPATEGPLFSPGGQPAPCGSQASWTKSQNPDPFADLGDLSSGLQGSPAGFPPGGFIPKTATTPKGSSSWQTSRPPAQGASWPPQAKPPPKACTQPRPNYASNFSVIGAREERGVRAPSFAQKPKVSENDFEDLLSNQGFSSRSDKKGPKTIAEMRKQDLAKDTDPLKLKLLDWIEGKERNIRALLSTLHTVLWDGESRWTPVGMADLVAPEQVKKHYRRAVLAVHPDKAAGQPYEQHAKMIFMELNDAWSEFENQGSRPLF
Description: Induction of stabilization of recombinant GAK (unknown origin) assessed as change in melting temperature by differential scanning fluorimetry assay

Sequence of Vascular endothelial growth factor receptor 1 (P17948 whole entry): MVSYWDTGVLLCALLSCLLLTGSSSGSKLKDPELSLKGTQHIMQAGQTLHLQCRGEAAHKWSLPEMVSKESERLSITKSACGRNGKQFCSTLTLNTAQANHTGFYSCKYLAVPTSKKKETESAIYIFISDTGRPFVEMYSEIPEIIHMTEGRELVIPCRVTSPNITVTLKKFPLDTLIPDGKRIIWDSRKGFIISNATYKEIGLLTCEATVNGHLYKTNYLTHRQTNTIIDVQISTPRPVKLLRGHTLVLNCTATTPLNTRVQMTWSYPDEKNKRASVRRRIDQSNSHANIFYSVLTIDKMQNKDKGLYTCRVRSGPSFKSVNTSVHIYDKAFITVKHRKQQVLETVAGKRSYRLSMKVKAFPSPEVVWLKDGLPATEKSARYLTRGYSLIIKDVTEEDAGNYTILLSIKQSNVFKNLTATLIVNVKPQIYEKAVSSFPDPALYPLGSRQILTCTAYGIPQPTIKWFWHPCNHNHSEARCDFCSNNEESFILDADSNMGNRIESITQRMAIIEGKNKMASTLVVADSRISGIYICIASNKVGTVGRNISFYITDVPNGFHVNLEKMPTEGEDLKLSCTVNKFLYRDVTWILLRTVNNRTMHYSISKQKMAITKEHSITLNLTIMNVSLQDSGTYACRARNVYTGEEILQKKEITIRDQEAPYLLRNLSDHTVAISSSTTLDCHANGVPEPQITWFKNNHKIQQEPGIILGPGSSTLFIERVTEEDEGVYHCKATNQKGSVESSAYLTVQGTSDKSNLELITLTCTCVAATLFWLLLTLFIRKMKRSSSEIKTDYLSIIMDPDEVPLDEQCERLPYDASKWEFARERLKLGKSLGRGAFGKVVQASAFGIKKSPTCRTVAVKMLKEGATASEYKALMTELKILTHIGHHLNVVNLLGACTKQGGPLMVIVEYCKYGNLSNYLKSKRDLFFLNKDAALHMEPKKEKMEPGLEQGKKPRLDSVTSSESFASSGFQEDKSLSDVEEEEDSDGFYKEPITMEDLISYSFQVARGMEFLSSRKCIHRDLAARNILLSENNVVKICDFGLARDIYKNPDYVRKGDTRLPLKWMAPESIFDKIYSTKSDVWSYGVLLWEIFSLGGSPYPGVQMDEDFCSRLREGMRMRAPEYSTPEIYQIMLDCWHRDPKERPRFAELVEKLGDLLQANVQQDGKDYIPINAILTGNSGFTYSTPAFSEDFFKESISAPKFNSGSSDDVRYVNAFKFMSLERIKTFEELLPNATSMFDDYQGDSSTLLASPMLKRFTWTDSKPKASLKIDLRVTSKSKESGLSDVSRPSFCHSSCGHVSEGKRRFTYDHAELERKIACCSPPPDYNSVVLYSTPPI
Sequence of Ephrin type-A receptor 7 (Homo sapiens) (Q15375 28-998 limits assumed): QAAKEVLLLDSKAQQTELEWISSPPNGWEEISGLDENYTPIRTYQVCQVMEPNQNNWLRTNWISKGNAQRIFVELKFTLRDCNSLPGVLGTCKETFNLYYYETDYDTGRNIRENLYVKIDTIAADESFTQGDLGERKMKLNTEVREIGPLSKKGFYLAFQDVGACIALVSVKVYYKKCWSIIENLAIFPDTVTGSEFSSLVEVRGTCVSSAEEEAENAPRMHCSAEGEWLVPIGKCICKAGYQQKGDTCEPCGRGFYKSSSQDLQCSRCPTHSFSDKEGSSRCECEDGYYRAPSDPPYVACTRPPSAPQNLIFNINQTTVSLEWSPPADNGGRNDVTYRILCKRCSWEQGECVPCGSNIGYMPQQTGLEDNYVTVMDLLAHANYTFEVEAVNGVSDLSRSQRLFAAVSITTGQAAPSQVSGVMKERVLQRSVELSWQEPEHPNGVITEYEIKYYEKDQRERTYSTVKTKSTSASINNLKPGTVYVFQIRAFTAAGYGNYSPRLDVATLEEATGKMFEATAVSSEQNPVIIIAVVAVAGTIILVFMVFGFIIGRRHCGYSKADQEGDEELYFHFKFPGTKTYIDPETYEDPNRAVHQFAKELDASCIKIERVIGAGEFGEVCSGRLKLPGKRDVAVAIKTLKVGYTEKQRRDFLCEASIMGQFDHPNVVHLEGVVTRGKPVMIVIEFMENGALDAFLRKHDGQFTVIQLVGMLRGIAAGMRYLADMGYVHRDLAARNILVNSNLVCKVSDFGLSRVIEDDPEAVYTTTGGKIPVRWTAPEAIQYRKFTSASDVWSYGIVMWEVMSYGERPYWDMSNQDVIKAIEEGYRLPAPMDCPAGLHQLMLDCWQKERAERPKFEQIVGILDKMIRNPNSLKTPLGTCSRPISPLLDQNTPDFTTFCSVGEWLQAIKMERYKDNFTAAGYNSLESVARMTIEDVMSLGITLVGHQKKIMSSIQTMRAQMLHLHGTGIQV
Sequence of Ephrin type-A receptor 5 (Homo sapiens) (P54756 whole entry): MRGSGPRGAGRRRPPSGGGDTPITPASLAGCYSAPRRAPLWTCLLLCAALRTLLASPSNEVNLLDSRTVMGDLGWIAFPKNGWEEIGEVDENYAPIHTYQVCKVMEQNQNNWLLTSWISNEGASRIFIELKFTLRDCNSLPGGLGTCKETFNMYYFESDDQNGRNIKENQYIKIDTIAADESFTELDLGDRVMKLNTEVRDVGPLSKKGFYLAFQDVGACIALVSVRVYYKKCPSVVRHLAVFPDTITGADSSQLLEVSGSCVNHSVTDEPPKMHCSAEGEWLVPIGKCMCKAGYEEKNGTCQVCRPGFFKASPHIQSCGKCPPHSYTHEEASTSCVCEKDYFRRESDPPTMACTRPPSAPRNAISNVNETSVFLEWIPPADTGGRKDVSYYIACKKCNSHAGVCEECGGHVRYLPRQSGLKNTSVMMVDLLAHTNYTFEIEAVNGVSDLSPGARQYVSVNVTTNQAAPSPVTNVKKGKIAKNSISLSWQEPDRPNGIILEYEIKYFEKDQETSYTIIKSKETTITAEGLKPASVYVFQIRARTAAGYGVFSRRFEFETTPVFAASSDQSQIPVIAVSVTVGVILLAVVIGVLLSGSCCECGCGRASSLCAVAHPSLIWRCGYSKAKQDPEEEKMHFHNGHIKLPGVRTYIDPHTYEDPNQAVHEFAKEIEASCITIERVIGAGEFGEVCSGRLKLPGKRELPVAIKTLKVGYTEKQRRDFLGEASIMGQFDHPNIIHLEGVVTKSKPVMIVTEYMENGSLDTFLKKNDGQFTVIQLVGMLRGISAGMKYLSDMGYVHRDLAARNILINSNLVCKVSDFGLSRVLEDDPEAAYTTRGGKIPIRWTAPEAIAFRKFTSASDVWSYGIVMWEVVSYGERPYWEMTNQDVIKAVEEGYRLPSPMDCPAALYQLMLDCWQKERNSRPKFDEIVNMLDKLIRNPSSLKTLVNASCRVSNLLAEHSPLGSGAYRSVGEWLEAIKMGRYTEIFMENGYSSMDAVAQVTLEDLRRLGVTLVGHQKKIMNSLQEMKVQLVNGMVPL
Sequence of Ephrin type-A receptor 2 (P29317 whole entry): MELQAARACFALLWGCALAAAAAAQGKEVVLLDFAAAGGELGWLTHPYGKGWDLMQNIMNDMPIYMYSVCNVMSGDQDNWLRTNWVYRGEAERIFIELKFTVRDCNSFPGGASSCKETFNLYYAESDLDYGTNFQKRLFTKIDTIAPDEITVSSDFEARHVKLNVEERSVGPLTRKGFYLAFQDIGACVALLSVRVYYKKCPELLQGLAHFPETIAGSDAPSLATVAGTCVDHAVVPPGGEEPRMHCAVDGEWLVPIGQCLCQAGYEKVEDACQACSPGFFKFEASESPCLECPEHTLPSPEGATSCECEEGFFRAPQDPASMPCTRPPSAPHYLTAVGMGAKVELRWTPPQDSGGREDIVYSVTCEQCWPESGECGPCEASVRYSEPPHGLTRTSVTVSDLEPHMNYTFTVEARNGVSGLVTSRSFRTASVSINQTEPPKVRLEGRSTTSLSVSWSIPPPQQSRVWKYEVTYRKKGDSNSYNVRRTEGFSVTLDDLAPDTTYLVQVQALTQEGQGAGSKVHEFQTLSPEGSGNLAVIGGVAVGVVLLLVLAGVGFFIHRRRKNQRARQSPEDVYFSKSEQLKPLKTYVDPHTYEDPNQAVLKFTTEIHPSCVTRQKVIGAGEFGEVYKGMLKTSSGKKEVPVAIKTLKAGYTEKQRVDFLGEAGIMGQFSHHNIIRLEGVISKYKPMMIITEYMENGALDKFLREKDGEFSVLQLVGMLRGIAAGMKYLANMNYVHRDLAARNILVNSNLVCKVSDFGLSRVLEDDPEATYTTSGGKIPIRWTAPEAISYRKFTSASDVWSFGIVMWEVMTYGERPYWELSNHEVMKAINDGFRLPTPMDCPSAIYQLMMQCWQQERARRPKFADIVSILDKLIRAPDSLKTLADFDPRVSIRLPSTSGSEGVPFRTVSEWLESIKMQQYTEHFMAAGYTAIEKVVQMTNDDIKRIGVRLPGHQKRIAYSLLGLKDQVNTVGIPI
Sequence of Fibroblast growth factor receptor 1 (P11362 22-822 limits assumed): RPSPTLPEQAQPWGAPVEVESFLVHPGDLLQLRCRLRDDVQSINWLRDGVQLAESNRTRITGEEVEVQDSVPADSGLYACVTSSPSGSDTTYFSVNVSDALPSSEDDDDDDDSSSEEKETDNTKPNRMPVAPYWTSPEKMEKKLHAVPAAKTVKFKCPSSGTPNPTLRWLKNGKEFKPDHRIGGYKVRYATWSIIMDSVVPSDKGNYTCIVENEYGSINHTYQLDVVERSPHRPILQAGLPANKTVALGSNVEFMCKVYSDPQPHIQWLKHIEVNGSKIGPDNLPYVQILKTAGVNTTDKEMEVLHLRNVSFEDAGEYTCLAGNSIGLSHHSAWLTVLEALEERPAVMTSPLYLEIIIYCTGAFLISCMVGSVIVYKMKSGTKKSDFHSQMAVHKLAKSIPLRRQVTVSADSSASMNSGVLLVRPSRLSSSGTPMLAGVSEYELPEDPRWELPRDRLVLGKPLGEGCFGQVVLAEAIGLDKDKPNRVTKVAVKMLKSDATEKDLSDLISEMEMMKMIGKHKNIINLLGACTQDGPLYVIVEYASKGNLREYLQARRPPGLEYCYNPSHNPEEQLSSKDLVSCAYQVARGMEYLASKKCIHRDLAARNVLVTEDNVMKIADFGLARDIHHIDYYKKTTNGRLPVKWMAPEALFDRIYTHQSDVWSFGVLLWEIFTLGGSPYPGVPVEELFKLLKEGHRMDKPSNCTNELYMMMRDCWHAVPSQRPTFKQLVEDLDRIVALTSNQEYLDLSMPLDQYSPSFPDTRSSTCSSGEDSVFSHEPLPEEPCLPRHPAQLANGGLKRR

Row | deltaTm (Ephrin type-A receptor 4) [K] | deltaTm [1] [K] | deltaTm [2] [K] | deltaTm [3] [K] | deltaTm [4] [K] | deltaTm (Ephrin type-A receptor 2) [K] | deltaTm [5] [K] | deltaTm [6] [K] | deltaTm [7] [K] | deltaTm [8] [K] | Compound
1 | 2.6 | 0.5 | 3.2 | 0 | 2.7 | 6.2 | 3.5 | 2.4 | 3.6 | 4.9 | Cc1cc(Cl)c(Cl)cc1-c1cnc2nc1NCCCNS(=O)(=O)c1cccc(c1)N2
2 | 2.3 | 0.7 | 1.5 | 2.5 | 0.8 | 3.5 | 3.9 | 0.7 | 1.5 | 6.3 | COc1cc(-c2cnc3nc2NCCCNS(=O)(=O)c2cc(ccc2OCC(N)=O)N3)ccc1F
3 | 0.8 | 1.4 | 0.9 | 1.1 | 5.3 | 1.8 | 1.3 | 4.9 | 5.8 | 3.3 | COc1cc(-c2cnc3nc2NCCCNS(=O)(=O)c2cccc(c2)N3)cc(C(F)(F)F)c1
4 | 5.2 | 0 | 5.2 | 3.1 | 1.1 | 8.6 | 6.2 | 0 | 1.7 | 8.9 | COc1cc(-c2cnc3nc2NCCCNS(=O)(=O)c2cccc(c2)N3)ccc1C#N
5 | 3.8 | 0.4 | 3.5 | 5.4 | 5.4 | 9.5 | 5.6 | 4.5 | 5.7 | 6.5 | O=S1(=O)NCCCNc2nc(ncc2-c2cc(Cl)c(Cl)cc2F)Nc2cccc1c2

The next lines start with the molecule.

Row | Compound | deltaTm (Ephrin type-A receptor 4) [K] | deltaTm [1] [K] | deltaTm [2] [K] | deltaTm [3] [K] | deltaTm [4] [K] | deltaTm (Ephrin type-A receptor 2) [K] | deltaTm [5] [K] | deltaTm [6] [K] | deltaTm [7] [K] | deltaTm [8] [K]
6 | Nc1cc(-c2cnc3nc2NCCCNS(=O)(=O)c2cccc(c2)N3)ccc1F | 4.4 | 0.2 | 3.6 | 1.7 | 4.9 | 7.7 | 4.6 | 2.2 | 4.6 | 6
7 | CC(C)Oc1cc(-c2cnc3nc2NCCCNS(=O)(=O)c2cccc(c2)N3)ccc1F | 0.7 | 0.6 | 0 | 3.4 | 2.1 | 0.7 | 0.2 | 1 | 1.5 | 1.6
8 | COC(=O)COc1ccc2cc1S(=O)(=O)NCCCNc1nc(ncc1-c1ccc(F)c(OC)c1)N2 | 1.6 | 0.4 | 1 | 1.4 | 0.3 | 2.4 | 2.3 | 0.5 | 1.3 | 3.7
9 | COc1cc(-c2cnc3nc2NCCCNS(=O)(=O)c2cccc(c2)N3)cc(OC)c1OC | 2.2 | -0.3 | 2.2 | 2.4 | 0.7 | 6 | 2.9 | 0.8 | 1.2 | 5.9
10 | O=S1(=O)NCCCNc2nc(ncc2-c2ccc(F)c(C(F)(F)F)c2)Nc2cccc1c2 | 0.7 | 0.9 | 0.6 | 0.6 | 1.8 | 3 | 1.6 | 1.3 | 2.1 | 3.1
11 | COc1cc(-c2cnc3nc2NCCCNS(=O)(=O)c2cc(ccc2-c2ccc(O)cc2)N3)ccc1F | 5.3 | 2.9 | 4.3 | 6 | 3.6 | 9.8 | 6.7 | 3.1 | 4 | 3.6
12 | COc1cc(-c2cnc3nc2NCCCNS(=O)(=O)c2cccc(c2)N3)ccc1Cl | 4.1 | 2.1 | 0.9 | 4.7 | 5.2 | 7.7 | 4.9 | 3.3 | 3.8 | 7.1
